Laboratory results taken from patent publication US7183295B2, “PPAR-activating compound and pharmaceutical composition comprising the compound” (Kowa Co., Ltd., priority 2003, dated 2007).
Like-named read-outs stand apart in the source and are kept apart here.

Columns and labels:
Format in all cases: cell-based
[1] = biological target: T1, human PPARα (166–467aa) ligand binding domain (Homo sapiens, UniProt Q07869); assay: PPAR transfection (Gal4-LBD luciferase reporter) assay, hPPARα; conditions: read-out: hPPAR, EC50 α (agonist activity)
T1 construct: human PPARα (166–467aa); expressed in transfected cells; host or cells: COS-7
T1 sequence (Q07869 166-467): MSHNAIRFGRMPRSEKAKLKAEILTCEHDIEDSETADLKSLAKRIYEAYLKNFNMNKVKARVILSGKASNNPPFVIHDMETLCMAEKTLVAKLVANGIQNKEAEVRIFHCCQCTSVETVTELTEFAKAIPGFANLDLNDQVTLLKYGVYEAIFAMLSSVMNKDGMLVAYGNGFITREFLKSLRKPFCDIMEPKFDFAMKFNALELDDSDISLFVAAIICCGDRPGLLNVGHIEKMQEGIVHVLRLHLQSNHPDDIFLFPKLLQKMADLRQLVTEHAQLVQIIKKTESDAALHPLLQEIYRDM
Procedure: (§1) COS-7 cells, which is African green monkey kidney cell line, were used for all transfection assays. Cells were cultured in DMEM medium supplemented with 10% fetal bovine serum, glutamic acid, and an antibiotic under humidified 5% CO2 atmosphere.
(§2) Cells were transfected by lipofectamine reagent with a mixture containing expression plasmid, firefly luciferase reporter plasmid. And a β-galactosidase expression plasmid used as an internal control for transfection efficiency.
(§3) Transiently transfected cells were incubated with DMEM with 0.2% FCS with or without compound. And after 16 hours, luciferase activity and β-galactosidase activity of cell lysate were measured.
(§4) Each compound was dissolved in and diluted with dimethyl sulfoxide (DMSO), and the DMSO concentration of the DMEM medium (containing 0.2% serum) was adjusted to 0.1% upon treatment of cells.

[2] = biological target: T2, human PPARγ (182–505aa) ligand binding domain (Homo sapiens, UniProt P37231); assay: PPAR transfection (Gal4-LBD luciferase reporter) assay, hPPARγ; conditions: read-out: hPPAR, EC50 γ (agonist activity)
T2 construct: γ(182–505aa); expressed in transfected cells; host or cells: COS-7
T2 sequence (P37231 182-505): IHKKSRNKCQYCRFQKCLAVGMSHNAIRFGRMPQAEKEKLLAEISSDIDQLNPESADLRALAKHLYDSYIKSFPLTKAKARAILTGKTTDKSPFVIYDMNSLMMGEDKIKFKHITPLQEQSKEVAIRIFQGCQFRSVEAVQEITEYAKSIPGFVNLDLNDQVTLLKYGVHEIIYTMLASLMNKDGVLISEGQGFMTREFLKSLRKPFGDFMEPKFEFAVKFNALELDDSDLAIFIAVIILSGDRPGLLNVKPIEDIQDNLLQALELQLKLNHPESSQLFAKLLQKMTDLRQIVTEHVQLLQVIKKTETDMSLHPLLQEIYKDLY
Procedure: as §1, §2, §3, §4

[3] = biological target: T3, human PPARδ (137–441aa) ligand binding domain (Homo sapiens, UniProt Q03181); assay: PPAR transfection (Gal4-LBD luciferase reporter) assay, hPPARδ; conditions: read-out: hPPAR, EC50 δ (agonist activity)
T3 construct: δ (137–441aa); expressed in transfected cells; host or cells: COS-7
T3 sequence (Q03181 137-441): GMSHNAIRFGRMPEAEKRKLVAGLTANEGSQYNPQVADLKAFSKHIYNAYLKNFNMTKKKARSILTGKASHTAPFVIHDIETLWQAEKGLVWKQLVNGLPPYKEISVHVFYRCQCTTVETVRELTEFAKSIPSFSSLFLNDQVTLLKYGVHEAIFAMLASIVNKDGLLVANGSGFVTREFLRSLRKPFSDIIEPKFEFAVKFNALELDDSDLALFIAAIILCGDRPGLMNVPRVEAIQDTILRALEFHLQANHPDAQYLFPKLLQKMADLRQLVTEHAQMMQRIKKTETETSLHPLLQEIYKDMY
Procedure: as §1, §2, §3, §4

[4] = transfected COS-7 cells, 16 hours, luciferase activity

| Compound | EC50 [1, 4] [nM] | EC50 [2, 4] [nM] | EC50 [3, 4] [nM] | EC50 [1] [nM] | EC50 [2] [nM] | EC50 [3] [nM] |
| --- | --- | --- | --- | --- | --- | --- |
| CC(Oc1cccc(CCN(CCOc2ccccc2)c2nc3cc(F)ccc3o2)c1)C(=O)O (stereo not drawn) [Example 43, 2-[3-[2-[N-(5-Fluorobenzoxazol-2-yl)-N-2-phenoxyethyl]aminoethyl]phenoxy]propionic acid] | 70 | > 100000 | 5300 |  |  |  |
| COc1ccc2oc(N(CCOc3ccccc3)CCc3cccc(OC(C)C(=O)O)c3)nc2c1 (stereo not drawn) [Example 44, 2-[3-[2-[N-(5-Methoxybenzoxazol-2-yl)-N-2-phenoxyethyl]aminoethyl]phenoxy]propionic acid] | 80 | > 100000 | 1600 |  |  |  |
| CCC(Oc1cccc(CCN(CCOc2ccc(OC)cc2)c2nc3ccccc3o2)c1)C(=O)O (stereo not drawn) [Example 45, 2-[3-[2-[N-(Benzoxazol-2-yl)-N-2-(4-methoxyphenoxy)ethyl]aminoethyl]phenoxy]butyric acid] | 10 | 6300 | 1800 |  |  |  |
| CCC(Oc1cccc(CCN(CCOc2ccc(OC)cc2)c2nc3cc(F)ccc3o2)c1)C(=O)O (stereo not drawn) [Example 46, 2-[3-[2-[N-(5-Fluorobenzoxazol-2-yl)-N-2-(4-methoxyphenoxy)ethyl]aminoethyl]phenoxy]butyric acid] | 10 | > 100000 | 1800 |  |  |  |
| CCC(Oc1cccc(CCN(CCOc2ccc(OC)cc2)c2nc3cc(Cl)ccc3o2)c1)C(=O)O (stereo not drawn) [Example 47, 2-[3-[2-[N-(5-Chlorobenzoxazol-2-yl)-N-2-(4-methoxyphenoxy)ethyl]aminoethyl]phenoxy]butyric acid] | 40 | > 50000 | 1500 |  |  |  |
| CCC(Oc1cccc(CCN(CCOc2ccc(OC)cc2)c2nc3cc(OC)ccc3o2)c1)C(=O)O (stereo not drawn) [Example 48, 2-[3-[2-[N-(5-Methoxybenzoxazol-2-yl)-N-2-(4-methoxyphenoxy)ethyl]aminoethyl]phenoxy]butyric acid] | 80 | 5200 | 2000 |  |  |  |
| CCC(Oc1cccc(CCN(CCCOc2ccc(OC)cc2)c2nc3cc(F)ccc3o2)c1)C(=O)O (stereo not drawn) [Example 49, 2-[3-[2-[N-(5-Fluorobenzoxazol-2-yl)-N-3-(4-methoxyphenoxy)propyl]aminoethyl]phenoxy]butyric acid] | 20 | 1500 | 1500 |  |  |  |
| CCC(Oc1cccc(CCN(CCCOc2ccc(F)cc2)c2nc3ccccc3o2)c1)C(=O)O (stereo not drawn) [Example 50, 2-[3-[2-[N-(Benzoxazol-2-yl)-N-3-(4-fluorophenoxy)propyl]aminoethyl]phenoxy]butyric acid] | 40 | 2600 | 1400 |  |  |  |
| CCC(Oc1cccc(CCN(CCCOc2ccc(F)cc2)c2nc3cc(OC)ccc3o2)c1)C(=O)O (stereo not drawn) [Example 51, 2-[3-[2-[N-3-(4-Fluorophenoxy)propyl-N-(5-methoxybenzoxazol-2-yl)]aminoethyl]phenoxy]butyric acid] | 30 | 3800 | 1400 |  |  |  |
| CCC(Oc1cccc(CCN(CCCOc2ccc(Cl)cc2)c2nc3cc(OC)ccc3o2)c1)C(=O)O (stereo not drawn) [Example 52, 2-[3-[2-[N-3-(4-Chlorophenoxy)propyl-N-(5-methoxybenzoxazol-2-yl)]aminoethyl]phenoxy]butyric acid] | 10 | 2000 | 400 |  |  |  |
| CCC(Oc1cccc(CCN(CCCOc2ccc(Cl)cc2)c2nc3ccccc3o2)c1)C(=O)O (stereo not drawn) [Example 53, 2-[3-[2-[N-(Benzoxazol-2-yl)-N-3-(4-chlorophenoxy)propyl]aminoethyl]phenoxy]butyric acid] | 60 | 3900 | 1900 |  |  |  |
| CC(C)(Oc1cccc(CCN(CCOc2ccccc2)c2nc3ccccc3o2)c1)C(=O)O [Example 78, 2-[3-[2-[N-(Benzoxazol-2-yl)-N-2-phenoxyethyl]aminoethyl]phenoxy]-2-methylpropionic acid] | 30 | 1100 | > 100000 |  |  |  |
| COc1ccc(OCCCN(Cc2cccc(O[C@H](C)C(=O)O)c2)c2nc3ccccc3o2)cc1 [Example 82, (R)-2-[3-[[N-(Benzoxazol-2-yl)-N-3-(4-methoxyphenoxy)propyl]aminomethyl]phenoxy]propionic acid] | 2 | 1200 | 2500 |  |  |  |
| CC[C@@H](Oc1cccc(CN(CCCOc2ccccc2)c2nc3ccccc3o2)c1)C(=O)O [Example 83, (R)-2-[[3-[N-(Benzoxazol-2-yl)-N-3-phenoxypropyl]aminomethyl]phenoxy]butyric acid] | 2 | 910 | 1600 |  |  |  |
| CC[C@@H](Oc1cccc(CN(CCCOc2ccc(F)cc2)c2nc3ccccc3o2)c1)C(=O)O [Example 87, (R)-2-[[3-[N-(Benzoxazol-2-yl)-N-3-(4-fluorophenoxy)propyl]aminomethyl]phenoxy]butyric acid] | 3 | 940 | 1200 |  |  |  |
| C[C@@H](Oc1cccc(CN(CCCOc2ccccc2)c2nc3ccccc3o2)c1)C(=O)O [Example 88, (R)-2-[[3-[N-(Benzoxazol-2-yl)-N-3-phenoxypropyl]aminomethyl]phenoxy]propionic acid] | 11 | 2900 | 3700 |  |  |  |
| CC(Oc1cccc(CN(CCCC(=O)c2ccccc2)c2nc3ccccc3o2)c1)C(=O)O (stereo not drawn) [Example 93, 2-[3-[[N-(Benzoxazol-2-yl)-N-(4-oxo-4-phenylbutyl)]aminomethyl]phenoxy]propionic acid] | 9 | > 10000 | 5100 |  |  |  |
| COc1ccc(OCCCN(Cc2cccc(OC(C)C(=O)O)c2)c2nc3ccccc3s2)cc1 (stereo not drawn) [Example 96] | 1 | 1100 | 1200 |  |  |  |
| CCC(Oc1cccc(CN(CCCOc2ccccc2)c2nc3cc(F)ccc3o2)c1)C(=O)O (stereo not drawn) [Example 132] |  |  |  | 3 | 1000 | 1100 |
| CCC(Oc1cccc(CN(CCCOc2ccc(F)cc2)c2nc3ccc(F)cc3o2)c1)C(=O)O (stereo not drawn) [Example 140] | 7 | 1300 | 1800 |  |  |  |
| CCC(Oc1cccc(CN(CCCOc2ccc(C)cc2)c2nc3ccccc3o2)c1)C(=O)O (stereo not drawn) [Example 146] | 1 | 200 | 100 |  |  |  |
| Cc1ccc2oc(N(CCCOc3ccc(F)cc3)Cc3cccc(OC(C)C(=O)O)c3)nc2c1 (stereo not drawn) [Example 153] | 3 | 2500 | 1400 |  |  |  |
| Cc1ccc2oc(N(CCCOc3ccccc3)Cc3cccc(OC(C)C(=O)O)c3)nc2c1 (stereo not drawn) [Example 155] | 11 | > 10000 | 1800 |  |  |  |
| CC(Oc1cccc(CN(CCCOc2ccc3c(c2)OCO3)c2nc3ccccc3o2)c1)C(=O)O (stereo not drawn) [Example 157] | 4 | 1200 | 1300 |  |  |  |
| CCC(Oc1cccc(CN(CCCOc2ccccc2)c2nc3cc4c(cc3o2)OCO4)c1)C(=O)O (stereo not drawn) [Example 158] | 5 | 1600 | 1100 |  |  |  |
| CC(Oc1cccc(CN(CCCOc2ccccc2)c2nc3cc4c(cc3o2)OCO4)c1)C(=O)O (stereo not drawn) [Example 159] | 9 | > 10000 | 1500 |  |  |  |
| CC(Oc1cccc(CN(CCCOc2ccc(F)cc2)c2nc3cc4c(cc3o2)OCO4)c1)C(=O)O (stereo not drawn) [Example 169] | 4 | > 10000 | 2000 |  |  |  |
| CCC(Oc1cccc(CN(CCOc2ccc(F)cc2)c2nc3ccc(F)cc3o2)c1)C(=O)O (stereo not drawn) [Example 183] | 4 | 400 | 2400 |  |  |  |
